Test results taken from patent publication US5776944A, “7-(4-aminomethyl-3-methyloxyiminopyrroplidin-1-yl)-1-cyclopropyl-6-flu oro-4-oxo-1,4-dihydro-1,8-naphthyridine-3-carboxylic acid and the process for the preparation thereof” (LG Chemical Ltd., priority 1994, dated 1998).
≈ marks a conversion by molar mass, not a printed value. Entries after “also recorded” stand apart in the source; their conditions may differ.

What was measured:
[1] = Thermal analysis (Differential Scanning Calorimetry); type: physicochemical; conditions: DSC, 10° C./min
Protocol: For the Differential Scanning Calorimetry, METTLER TOLEDO DSC821e and METTLER TOLEDO STARe System were used. 3.7 mg of sample was weighed into the aluminum pan, which was then press sealed with an aluminum lid. After three tiny needle holes were made on the lid, the sample was tested by heating from normal temperature to 250° C. at a rate of 10° C./min.

[2] = Equilibrium moisture content determination of hydrates; type: physicochemical
Protocol: Six saturated aqueous salt solutions were introduced into each desiccator to control the inner relative humidity to a specific value as represented in the following Table 28. Then, equilibrium moisture contents of 3 hydrate and 1.5 hydrate prepared in Examples 205 and 206, respectively, were determined at several relative humidities.
Specifically, 100 mg of the sample was spread on a preweighed Petri dish and the total weight was accurately measured, then three of the sample were placed in each desiccator of Table 28. The desiccators were allowed to stand at normal temperature for 7 days and then the sample was taken to be weighed. After 13 days had passed, one of the three samples inside each desiccator was taken and the moisture content of each was measured by the thermogravimetric analysis described in Test Example 2. Equilibrium moisture content at each relative humidity is represented in FIG. 3 (3 hydrate), and FIG. 4 (1.5 hydrate). […] Both hydrates are stable since they keep a constant equilibrium moisture content regardless of the relative humidity change.

[3] = Chemical stability under heating; conditions: for thermal stability: hydrate
Protocol: The anhydride and each of the hydrates was introduced into a glass vial and maintained at 70° C.

[4] = Moisture content according to hydration number; type: physicochemical
Protocol: The moisture content of the hydrate varies with the hydration number (n) of the hydrated molecule. Since the molecular weight of 7-(4-amino-methyl-3-methyloxylminopyrrolidin-1-yl)-1-cyclopropyl-6-fluoro- 4-oxo-1,4-dihydro-1,8-naphthyridine-3-carboxylic acid methanesulfonate is 485.5, the moisture content of the hydrate for n equal to 1, 1.5, 2, 2.5, 3, 3.5 or 4 is calculated to be 3.6%, […], 6.9%, 8.5%, 10.0%, 11.5% or 12.9%, respectively. However, the actual moisture content may differ from the calculated moisture content depending on differences in recrystallization conditions, drying conditions, etc.

gram-positive strains = conditions: background art; cited from earlier work
[5] = background art; cited from earlier work
[6] = Moisture adsorption test of the anhydride; type: physicochemical; conditions: 25° C.
Protocol: Under various relative humidities at 25° C., the moisture adsorption velocity and the equilibrium moisture content of the anhydride prepared in Example 203 were determined by means of an automatic moisture adsorption analyzer (MB 300 G Gravimetric Sorption Analyzer). This instrument produces a specific relative humidity at a specific temperature and continuously records the weight change of a sample due to adsorption or desorption of moisture as measured by a micro balance inside the instrument. 16 mg of the anhydride sample was loaded on the micro balance and the moisture contained in the sample was removed under a dry nitrogen stream at 50° C. A weight change of less than 5 μg per 5 minutes was the criterion for complete dryness. Thereafter, the inner temperature was adjusted to 25° C., and the sample was tested varying the relative humidity from 0 to 95% at 5% intervals. The sample was considered to have reached equilibrium at each relative humidity tested when the weight change was less than 5 μg per 5 minutes. […] In most cases, the equilibrium was reached within 2 hours.

[7] = Humidification of the anhydride with humidified nitrogen (Example 205); type: physicochemical
Protocol: A sonicator filled with water was adjusted to 40° C. and was sealed with a lid. Then, a nitrogen introducing tube and a nitrogen excreting tube were connected to the vessel. When the pressure of the dried nitrogen introduced through the nitrogen introducing tube was adjusted to 20 psi, the relative humidity of the humidified nitrogen excreted through the excreting tube was more than 93%. […] Samples were taken after 0, 5, 10, 20, 30, and 60 minutes, respectively, and the moisture content with the lapse of time was measured. From the results shown in FIG. 8, it can be seen that moisture content of about 10% is constantly maintained when the humidifying procedure is carried out over 30 minutes. The X-ray diffraction pattern of the humidified sample was identical to that the 3 hydrate obtained after recrystallization.

[8] = system: Staphylococcus aureus 6538p; assay: In vitro antibacterial activity (MIC, agar dilution), Biological Example 1; type: cell-based; conditions: 18 h, Table 25, read-out: Minimum Inhibitory Concentration
[9] = system: Staphylococcus aureus giorgio; assay: as above; type: cell-based; conditions: 18 h, Table 25, read-out: Minimum Inhibitory Concentration
Staphylococcus aureus 77 = assay: as above; type: cell-based; conditions: 18 h; Staphylococcus aureus 77, Table 25; read-out: Minimum Inhibitory Concentration
[10] = system: Staphylococcus aureus 241; assay: as above; type: cell-based; conditions: 18 h; Staphylococcus aureus 241, Table 25; read-out: Minimum Inhibitory Concentration
[11] = system: Staphylococcus epidermidis 887E; assay: as above; type: cell-based; conditions: 18 h, Table 25, read-out: Minimum Inhibitory Concentration
[12] = system: Staphylococcus epidermidis 178; assay: as above; type: cell-based; conditions: 18 h; Staphylococcus epidermidis 178, Table 25; read-out: Minimum Inhibitory Concentration
[13] = system: Streptococcus faecalis 29212; assay: as above; type: cell-based; conditions: Enterococcus faecalis, 18 h; Streptococcus faecalis 29212, Table 25; read-out: Minimum Inhibitory Concentration
Bacillus subtilis 6633 = assay: as above; type: cell-based; conditions: 18 h; Bacillus subtilis 6633, Table 25; read-out: Minimum Inhibitory Concentration
Micrococcus luteus 9341 = assay: as above; type: cell-based; conditions: 18 h; Micrococcus luteus 9341, Table 25; read-out: Minimum Inhibitory Concentration
Escherichia coli 10536 = assay: as above; type: cell-based; conditions: 18 h; Escherichia coli 10536, Table 25; read-out: Minimum Inhibitory Concentration
Escherichia coli 3190Y = assay: as above; type: cell-based; conditions: 18 h, Table 25, read-out: Minimum Inhibitory Concentration
Escherichia coli 851E = assay: as above; type: cell-based; conditions: 18 h, Table 25, read-out: Minimum Inhibitory Concentration
[14] = system: Escherichia coli TEM3 3455E; assay: microbe, parasite or virus in culture; type: cell-based; conditions: TEM33455E, 18 h, read-out: Minimum Inhibitory Concentration
[15] = system: Escherichia coli TEM5 3739E; assay: microbe, parasite or virus in culture; type: cell-based; conditions: TEM53739E, 18 h, read-out: Minimum Inhibitory Concentration
[16] = system: Escherichia coli TEM9 2639E; assay: microbe, parasite or virus in culture; type: cell-based; conditions: TEM92639E, 18 h, read-out: Minimum Inhibitory Concentration
[17] = system: Pseudomonas aeruginosa 1912E; assay: In vitro antibacterial activity (MIC, agar dilution), Biological Example 1; type: cell-based; conditions: 18 h; Pseudomonas aeruginosa 1912E, Table 25; read-out: Minimum Inhibitory Concentration
[18] = system: Pseudomonas aeruginosa 10145; assay: as above; type: cell-based; conditions: 18 h; Pseudomonas aeruginosa 10145, Table 25; read-out: Minimum Inhibitory Concentration
[19] = system: Acinetobacter calcoaceticus 15473; assay: as above; type: cell-based; conditions: 18 h; Acinetobacter calcoaceticus 15473, Table 25; read-out: Minimum Inhibitory Concentration
[20] = system: Citrobacter diversus 2046E; assay: as above; type: cell-based; conditions: Citrobacter koseri, 18 h, Table 25, read-out: Minimum Inhibitory Concentration
[21] = system: Enterobacter cloacae 1194E; assay: microbe, parasite or virus in culture; type: cell-based; conditions: 18 h, read-out: Minimum Inhibitory Concentration
Enterobacter cloacae P99 = assay: microbe, parasite or virus in culture; type: cell-based; conditions: P99, 18 h, read-out: Minimum Inhibitory Concentration
[22] = system: Klebsiella aerogenes 1976E; assay: In vitro antibacterial activity (MIC, agar dilution), Biological Example 1; type: cell-based; conditions: 18 h, Table 25, read-out: Minimum Inhibitory Concentration
[23] = system: Klebsiella aerogenes 1082E; assay: as above; type: cell-based; conditions: 18 h, Table 25, read-out: Minimum Inhibitory Concentration
[24] = system: Salmonella typimurium 14028; assay: as above; type: cell-based; conditions: 18 h; Salmonella typimurium 14028, Table 25; read-out: Minimum Inhibitory Concentration
Acute oral toxicity test = conditions: in vivo, ICR male mouse, 7 days
Protocol: To determine the acute oral toxicity of the compounds prepared in Examples 1 and 34, the test solution containing the compounds in various concentrations were orally administered to ICR male mouse in an amount of 10 ml per kg of body weight. For 7 days after administration, the lethality and the conditions of test mouse were observed, from which LD50 value (mg/kg), was calculated.

SMILES	MIC [8] [µg/mL]	MIC [9] [µg/mL]	MIC (Staphylococcus aureus 77) [µg/mL]	MIC [10] [µg/mL]	MIC [11] [µg/mL]	MIC [12] [µg/mL]	MIC [13] [µg/mL]	MIC (Bacillus subtilis 6633) [µg/mL]	MIC (Micrococcus luteus 9341) [µg/mL]	MIC (Escherichia coli 10536) [µg/mL]	MIC (Escherichia coli 3190Y) [µg/mL]	MIC (Escherichia coli 851E) [µg/mL]	MIC [14] [µg/mL]	MIC [15] [µg/mL]	MIC [16] [µg/mL]	MIC [17] [µg/mL]	MIC [18] [µg/mL]	MIC [19] [µg/mL]	MIC [20] [µg/mL]	MIC [21] [µg/mL]	further results
CON=C1CN(c2nc3c(cc2F)c(=O)c(C(=O)O)cn3C2CC2)CC1CN (centres unmarked) [3 hydrate, 7-(4-aminomethyl-3-methyloxyiminopyrrolidin-1-yl)-1-cyclopropyl-6-fluoro-4-oxo-1,4-dihydro-1,8-naphthyridine-3-carboxylic acid methanesulfonate·3 hydrate]																					onset of endothermic peak (vaporization of water) [1]: around 50 °C; stability of hydrate towards relative humidity change [2]: stable; equilibrium moisture content ([2]; whole relative humidity range tested (23 to 75%)): around 10%; thermal stability compared with the anhydride ([3]; 70° C., Table 29): the same degree of thermal stability as the anhydride; thermal stability ([3]; 40320 min): 94%; thermal stability [3]: 97%; Moisture Content ([4]; actual moisture content, methanesulfonate hydrates, hydrate): 9-11%; change of moisture content ([4]; among stable hydrates): lowest
CCn1cc(C(=O)O)c(=O)c2cc(F)c(N3CCNCC3)cc21 [norfloxacin]																					antibacterial activity against gram-positive strains (gram-positive strains): weak antibacterial activity against gram-positive strains; distribution and absorption in living body [5]: poor distribution and absorption in living body
CON=C1CN(c2nc3c(cc2F)c(=O)c(C(=O)O)cn3C2CC2)CC1CN (centres unmarked) [anhydride, 7-(4-aminomethyl-3-methyloxyiminopyrrolidin-1-yl)-1-cyclopropyl-6-fluoro-4-oxo-1,4-dihydro-1,8-naphthyridine-3-carboxylic acid methanesulfonate anhydride]																					moisture adsorption ([6]; relative humidity 0 to 95%): Initial moisture adsorption proceeded very speedily at each relative humidity tested; also recorded: the equilibrium moisture content is dependent upon the relative humidity; time to reach moisture adsorption equilibrium ([6]; relative humidity 0 to 95% at 5% intervals, in most cases): ≤ 2 h; endothermic peak [1]: without any endothermic peak; Moisture Content ([7]; before humidification): about 2.5%; Moisture Content ([7]; humidified nitrogen, over 30 minutes, FIG. 8): about 10%
NCC1CN(c2nc3c(cc2F)c(=O)c(C(=O)O)cn3C2CC2)CC1=NOCc1ccccc1 (centres unmarked) [Example 1, 7-(4-aminomethyl-3-benzyloxyimino-pyrrolidin-1-yl)-1-cyclopropyl-6-fluoro-1,4-dihydro-4-oxo-1,8-naphthyridine-3-carboxylic acid]	≤ 0.008	≤ 0.008	≤ 0.008	2 (≈ 4.3 µM)	≤ 0.008	2 (≈ 4.3 µM)	0.031 (≈ 0.0666 µM)	≤ 0.008	0.063 (≈ 0.135 µM)	≤ 0.008	≤ 0.008	0.016 (≈ 0.0344 µM)	0.25 (≈ 0.537 µM)	0.063 (≈ 0.135 µM)	0.063 (≈ 0.135 µM)	1 (≈ 2.15 µM)	2 (≈ 4.3 µM)	≤ 0.008	0.063 (≈ 0.135 µM)	0.031 (≈ 0.0666 µM)	MIC (Enterobacter cloacae P99): ≤ 0.008 µg/mL; MIC [22]: 0.25 µg/mL (≈ 0.537 µM); MIC [23]: 0.063 µg/mL (≈ 0.135 µM); MIC [24]: 0.13 µg/mL (≈ 0.279 µM); LD50 at 168 h (Acute oral toxicity test): > 3000 mg/kg
NCC1CN(c2c(F)cc3c(=O)c(C(=O)O)cn(C4CC4)c3c2Cl)CC1=NOCc1ccccc1 (centres unmarked) [Example 34, 7-(4-aminomethyl-3-benzyoxyimino-pyrrolidin-1-yl)-8-chloro-1-cyclopropyl-6-fluoro-1,4-dihydro-4-oxo-guinoline-3-carboxylic acid]	≤ 0.008	≤ 0.008	≤ 0.008	4 (≈ 8.02 µM)	≤ 0.008	2 (≈ 4.01 µM)	0.13 (≈ 0.261 µM)	≤ 0.008	0.13 (≈ 0.261 µM)	0.016 (≈ 0.0321 µM)	≤ 0.008	0.13 (≈ 0.261 µM)	1 (≈ 2 µM)	0.5 (≈ 1 µM)	0.13 (≈ 0.261 µM)	0.5 (≈ 1 µM)	2 (≈ 4.01 µM)	0.031 (≈ 0.0621 µM)	0.25 (≈ 0.501 µM)	0.25 (≈ 0.501 µM)	MIC (Enterobacter cloacae P99): 0.063 µg/mL (≈ 0.126 µM); MIC [22]: 0.5 µg/mL (≈ 1 µM); MIC [23]: 0.031 µg/mL (≈ 0.0621 µM); MIC [24]: 0.063 µg/mL (≈ 0.126 µM); LD50 at 168 h (Acute oral toxicity test): > 3000 mg/kg
